From ChEMBL document CHEMBL1144021, “Molecular determinants of the anticonvulsant felbamate binding site in the N-methyl-D-aspartate receptor” (J Med Chem, 2008)
Active and inactive are the calls of the source. The calls are words filed in the database; no cut-off is given here.

Experiments:
[1] = Binding affinity to NR2B receptor […]/T103A mutant
[2] = Ratio of Kapp for wild type NR2B receptor to Kapp for NR2B receptor ATD T103A mutant
[3] = tested on: Glutamate receptor ionotropic, NMDA 2B (Homo sapiens), Q13224 [F642A]; experiment: Inhibition of NR2B receptor M3c F642A mutant expressed in Xenopus oocytes assessed as NMDA current at 0.5 mM relative to control; format: cell-based; conditions: Oocyte
[4] = tested on: Glutamate receptor ionotropic, NMDA 2B (Homo sapiens), Q13224 [K234A]; experiment: Inhibition of NR2B receptor ATD K234A mutant expressed in Xenopus oocytes assessed as NMDA current at 0.5 mM relative to control; format: cell-based; conditions: Oocyte
[5] = tested on: Glutamate receptor ionotropic, NMDA 2B (Homo sapiens), Q13224 [F653A]; experiment: Inhibition of NR2B receptor M3c F653A mutant expressed in Xenopus oocytes assessed as NMDA current at 0.5 mM relative to control; format: cell-based; conditions: Oocyte
[6] = Ratio of Kapp for wild type NR2B receptor to Kapp for NR2B receptor ATD K234A mutant
[7] = tested on: Glutamate receptor ionotropic, NMDA 2B (Homo sapiens), Q13224 [E106A]; experiment: Inhibition of NR2B receptor ATD E106A mutant expressed in Xenopus oocytes assessed as NMDA current at 0.5 mM relative to control; format: cell-based; conditions: Oocyte
[8] = Binding affinity to NR2B receptor […]/S645A mutant
[9] = tested on: Glutamate receptor ionotropic, NMDA 2B (Homo sapiens), Q13224 [A652T]; experiment: Inhibition of NR2B receptor M3c A652T mutant expressed in Xenopus oocytes assessed as NMDA current at 0.5 mM relative to control; format: cell-based; conditions: Oocyte
Glutamate receptor ionotropic, NMDA 2B (Homo sapiens), Q13224 [A652T], sequence (Q13224 whole entry A652T): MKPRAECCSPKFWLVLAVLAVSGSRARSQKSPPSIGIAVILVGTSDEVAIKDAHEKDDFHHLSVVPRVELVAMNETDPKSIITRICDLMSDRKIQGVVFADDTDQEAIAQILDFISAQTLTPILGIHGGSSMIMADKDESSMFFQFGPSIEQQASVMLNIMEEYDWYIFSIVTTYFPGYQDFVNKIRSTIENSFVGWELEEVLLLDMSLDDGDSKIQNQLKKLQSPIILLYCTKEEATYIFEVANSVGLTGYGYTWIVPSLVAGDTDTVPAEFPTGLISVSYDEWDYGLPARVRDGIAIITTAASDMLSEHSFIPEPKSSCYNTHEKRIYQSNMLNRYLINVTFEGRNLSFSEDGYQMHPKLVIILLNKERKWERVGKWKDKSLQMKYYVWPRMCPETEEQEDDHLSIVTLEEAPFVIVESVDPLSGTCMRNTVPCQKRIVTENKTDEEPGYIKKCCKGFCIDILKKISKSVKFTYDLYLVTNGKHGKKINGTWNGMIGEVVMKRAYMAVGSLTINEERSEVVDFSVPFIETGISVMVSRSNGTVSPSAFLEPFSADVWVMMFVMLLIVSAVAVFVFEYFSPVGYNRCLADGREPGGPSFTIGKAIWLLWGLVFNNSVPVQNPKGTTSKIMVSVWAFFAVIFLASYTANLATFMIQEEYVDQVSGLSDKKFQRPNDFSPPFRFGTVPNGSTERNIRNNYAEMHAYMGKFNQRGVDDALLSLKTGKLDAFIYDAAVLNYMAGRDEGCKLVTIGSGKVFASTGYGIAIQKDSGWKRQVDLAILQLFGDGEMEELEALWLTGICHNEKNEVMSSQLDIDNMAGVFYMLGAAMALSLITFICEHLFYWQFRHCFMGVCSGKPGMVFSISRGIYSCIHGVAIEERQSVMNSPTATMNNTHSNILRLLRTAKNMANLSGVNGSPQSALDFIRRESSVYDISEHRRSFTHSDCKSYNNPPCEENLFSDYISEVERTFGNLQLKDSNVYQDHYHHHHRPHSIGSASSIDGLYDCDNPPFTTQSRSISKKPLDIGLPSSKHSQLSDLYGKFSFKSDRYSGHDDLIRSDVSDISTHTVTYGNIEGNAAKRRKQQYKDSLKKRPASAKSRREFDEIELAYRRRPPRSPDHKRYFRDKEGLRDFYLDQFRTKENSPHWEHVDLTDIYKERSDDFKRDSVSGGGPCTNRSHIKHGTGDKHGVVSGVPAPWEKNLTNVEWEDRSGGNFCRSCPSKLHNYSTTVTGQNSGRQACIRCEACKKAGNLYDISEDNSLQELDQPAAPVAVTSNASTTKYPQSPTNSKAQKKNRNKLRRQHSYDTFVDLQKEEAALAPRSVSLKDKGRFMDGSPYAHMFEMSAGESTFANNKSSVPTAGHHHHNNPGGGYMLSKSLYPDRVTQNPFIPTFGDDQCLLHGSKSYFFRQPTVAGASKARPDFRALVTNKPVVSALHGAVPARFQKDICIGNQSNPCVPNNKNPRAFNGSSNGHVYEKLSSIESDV

[10] = tested on: Glutamate receptor ionotropic, NMDA 2B (Homo sapiens), Q13224 [T103A,K234A]; experiment: Binding affinity to NR2B receptor T103A/K234A mutant
[11] = tested on: Glutamate receptor ionotropic, NMDA 2B (Homo sapiens), Q13224 [T103A]; experiment: Binding affinity to NR2B receptor ATD T103A mutant
[12] = tested on: Glutamate receptor ionotropic, NMDA 2B (Homo sapiens), Q13224 [M654A]; experiment: Inhibition of NR2B receptor post-M3 M654A mutant expressed in Xenopus oocytes assessed as NMDA current at 0.5 mM relative to control; format: cell-based; conditions: Oocyte
[13] = Ratio of Kapp for wild type NR2B receptor to Kapp for NR2B receptor M3c S645A mutant
[14] = tested on: Glutamate receptor ionotropic, NMDA 2B (Homo sapiens), Q13224 [T647A]; experiment: Inhibition of NR2B receptor M3c T647A mutant expressed in Xenopus oocytes assessed as NMDA current at 0.5 mM relative to control; format: cell-based; conditions: Oocyte
[15] = tested on: Glutamate receptor ionotropic, NMDA 2B (Homo sapiens), Q13224 [F554A]; experiment: Inhibition of NR2B receptor Pre-M1 F554A mutant expressed in Xenopus oocytes assessed as NMDA current at 0.5 mM relative to control; format: cell-based; conditions: Oocyte
[16] = tested on: Glutamate receptor ionotropic, NMDA 2B (Homo sapiens), Q13224 [S645A,I641A]; experiment: Binding affinity to NR2B receptor S645A/I641A mutant
[17] = Ratio of Kapp for wild type NR2B receptor to Kapp for NR2B receptor L643A/T647A mutant
[18] = Ratio of Kapp for wild type NR2B receptor to Kapp for NR2B receptor M3c L643A mutant
[19] = tested on: Glutamate receptor ionotropic, NMDA 2B (Homo sapiens), Q13224 [T233A]; experiment: Binding affinity to NR2B receptor ATD T233A mutant
Glutamate receptor ionotropic, NMDA 2B (Homo sapiens), Q13224 [T233A], sequence (Q13224 whole entry T233A): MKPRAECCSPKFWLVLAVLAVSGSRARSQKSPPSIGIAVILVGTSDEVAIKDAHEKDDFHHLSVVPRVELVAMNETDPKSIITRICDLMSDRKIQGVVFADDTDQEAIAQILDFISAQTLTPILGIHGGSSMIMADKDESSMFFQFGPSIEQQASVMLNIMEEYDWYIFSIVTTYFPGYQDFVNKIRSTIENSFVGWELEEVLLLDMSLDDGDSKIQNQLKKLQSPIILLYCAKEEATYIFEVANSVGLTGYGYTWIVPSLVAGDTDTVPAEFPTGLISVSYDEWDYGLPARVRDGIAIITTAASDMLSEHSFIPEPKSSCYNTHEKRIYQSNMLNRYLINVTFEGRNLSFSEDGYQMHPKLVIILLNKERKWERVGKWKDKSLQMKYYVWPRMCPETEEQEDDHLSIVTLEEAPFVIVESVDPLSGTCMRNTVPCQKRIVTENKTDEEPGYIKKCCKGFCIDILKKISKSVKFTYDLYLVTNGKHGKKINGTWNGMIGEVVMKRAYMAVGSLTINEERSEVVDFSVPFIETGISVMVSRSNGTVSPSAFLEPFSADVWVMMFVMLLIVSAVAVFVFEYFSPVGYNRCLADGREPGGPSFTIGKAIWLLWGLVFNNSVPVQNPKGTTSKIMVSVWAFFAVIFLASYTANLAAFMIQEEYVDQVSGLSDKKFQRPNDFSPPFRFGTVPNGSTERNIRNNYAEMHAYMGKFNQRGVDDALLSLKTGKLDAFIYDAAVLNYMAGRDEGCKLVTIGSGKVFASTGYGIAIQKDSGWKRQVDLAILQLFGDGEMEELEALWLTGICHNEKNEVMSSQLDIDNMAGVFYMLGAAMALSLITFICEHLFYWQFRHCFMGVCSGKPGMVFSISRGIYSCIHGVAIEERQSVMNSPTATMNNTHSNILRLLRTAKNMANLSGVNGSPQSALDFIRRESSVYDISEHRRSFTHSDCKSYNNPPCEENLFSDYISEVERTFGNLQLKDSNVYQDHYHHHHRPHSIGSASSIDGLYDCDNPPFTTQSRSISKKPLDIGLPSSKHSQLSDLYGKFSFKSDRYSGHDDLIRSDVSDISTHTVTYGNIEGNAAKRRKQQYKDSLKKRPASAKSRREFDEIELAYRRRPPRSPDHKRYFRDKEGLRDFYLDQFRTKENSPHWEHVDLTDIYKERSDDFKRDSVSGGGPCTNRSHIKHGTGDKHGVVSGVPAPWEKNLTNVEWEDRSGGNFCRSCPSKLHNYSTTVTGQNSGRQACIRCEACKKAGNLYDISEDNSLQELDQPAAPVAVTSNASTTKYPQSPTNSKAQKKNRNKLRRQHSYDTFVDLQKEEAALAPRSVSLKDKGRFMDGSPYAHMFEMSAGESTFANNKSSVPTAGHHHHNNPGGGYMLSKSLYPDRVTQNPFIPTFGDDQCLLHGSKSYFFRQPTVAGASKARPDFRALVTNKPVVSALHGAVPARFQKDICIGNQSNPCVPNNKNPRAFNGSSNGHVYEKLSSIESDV

[20] = Ratio of Kapp for wild type NR2B receptor to Kapp for NR2B receptor S645A/T103A mutant
[21] = biological target: Glutamate receptor ionotropic, NMDA 2B (Homo sapiens) (UniProt Q13224); experiment: Inhibition of wild type NR2B receptor expressed in Xenopus oocytes assessed as NMDA current at 0.5 mM relative to control; format: cell-based; conditions: Oocyte
[22] = tested on: Glutamate receptor ionotropic, NMDA 2B (Homo sapiens), Q13224 [T233A]; experiment: Inhibition of NR2B receptor ATD T233A mutant expressed in Xenopus oocytes assessed as NMDA current at 0.5 mM relative to control; format: cell-based; conditions: Oocyte
[23] = Ratio of Kapp for wild type NR2B receptor to Kapp for NR2B receptor L643A/K234A mutant
[24] = tested on: Glutamate receptor ionotropic, NMDA 2B (Homo sapiens), Q13224 [Y646A]; experiment: Inhibition of NR2B receptor M3c Y646A mutant expressed in Xenopus oocytes assessed as NMDA current at 0.5 mM relative to control; format: cell-based; conditions: Oocyte
[25] = tested on: Glutamate receptor ionotropic, NMDA 2B (Homo sapiens), Q13224 [F182A]; experiment: Inhibition of NR2B receptor ATD F182A mutant expressed in Xenopus oocytes assessed as NMDA current at 0.5 mM relative to control; format: cell-based; conditions: Oocyte
[26] = tested on: Glutamate receptor ionotropic, NMDA 2B (Homo sapiens), Q13224 [A644C]; experiment: Inhibition of NR2B receptor M3c A644C mutant expressed in Xenopus oocytes assessed as NMDA current at 0.5 mM relative to control; format: cell-based; conditions: Oocyte
[27] = tested on: Glutamate receptor ionotropic, NMDA 2B (Homo sapiens), Q13224 [T544A]; experiment: Inhibition of NR2B receptor Pre-M1 T544A mutant expressed in Xenopus oocytes assessed as NMDA current at 0.5 mM relative to control; format: cell-based; conditions: Oocyte
[28] = tested on: Glutamate receptor ionotropic, NMDA 2B (Homo sapiens), Q13224 [A651T]; experiment: Inhibition of NR2B receptor M3c A651T mutant expressed in Xenopus oocytes assessed as NMDA current at 0.5 mM relative to control; format: cell-based; conditions: Oocyte
[29] = tested on: Glutamate receptor ionotropic, NMDA 2B (Homo sapiens), Q13224 [S645A]; experiment: Binding affinity to NR2B receptor M3c S645A mutant
Glutamate receptor ionotropic, NMDA 2B (Homo sapiens), Q13224 [S645A], sequence (Q13224 whole entry S645A): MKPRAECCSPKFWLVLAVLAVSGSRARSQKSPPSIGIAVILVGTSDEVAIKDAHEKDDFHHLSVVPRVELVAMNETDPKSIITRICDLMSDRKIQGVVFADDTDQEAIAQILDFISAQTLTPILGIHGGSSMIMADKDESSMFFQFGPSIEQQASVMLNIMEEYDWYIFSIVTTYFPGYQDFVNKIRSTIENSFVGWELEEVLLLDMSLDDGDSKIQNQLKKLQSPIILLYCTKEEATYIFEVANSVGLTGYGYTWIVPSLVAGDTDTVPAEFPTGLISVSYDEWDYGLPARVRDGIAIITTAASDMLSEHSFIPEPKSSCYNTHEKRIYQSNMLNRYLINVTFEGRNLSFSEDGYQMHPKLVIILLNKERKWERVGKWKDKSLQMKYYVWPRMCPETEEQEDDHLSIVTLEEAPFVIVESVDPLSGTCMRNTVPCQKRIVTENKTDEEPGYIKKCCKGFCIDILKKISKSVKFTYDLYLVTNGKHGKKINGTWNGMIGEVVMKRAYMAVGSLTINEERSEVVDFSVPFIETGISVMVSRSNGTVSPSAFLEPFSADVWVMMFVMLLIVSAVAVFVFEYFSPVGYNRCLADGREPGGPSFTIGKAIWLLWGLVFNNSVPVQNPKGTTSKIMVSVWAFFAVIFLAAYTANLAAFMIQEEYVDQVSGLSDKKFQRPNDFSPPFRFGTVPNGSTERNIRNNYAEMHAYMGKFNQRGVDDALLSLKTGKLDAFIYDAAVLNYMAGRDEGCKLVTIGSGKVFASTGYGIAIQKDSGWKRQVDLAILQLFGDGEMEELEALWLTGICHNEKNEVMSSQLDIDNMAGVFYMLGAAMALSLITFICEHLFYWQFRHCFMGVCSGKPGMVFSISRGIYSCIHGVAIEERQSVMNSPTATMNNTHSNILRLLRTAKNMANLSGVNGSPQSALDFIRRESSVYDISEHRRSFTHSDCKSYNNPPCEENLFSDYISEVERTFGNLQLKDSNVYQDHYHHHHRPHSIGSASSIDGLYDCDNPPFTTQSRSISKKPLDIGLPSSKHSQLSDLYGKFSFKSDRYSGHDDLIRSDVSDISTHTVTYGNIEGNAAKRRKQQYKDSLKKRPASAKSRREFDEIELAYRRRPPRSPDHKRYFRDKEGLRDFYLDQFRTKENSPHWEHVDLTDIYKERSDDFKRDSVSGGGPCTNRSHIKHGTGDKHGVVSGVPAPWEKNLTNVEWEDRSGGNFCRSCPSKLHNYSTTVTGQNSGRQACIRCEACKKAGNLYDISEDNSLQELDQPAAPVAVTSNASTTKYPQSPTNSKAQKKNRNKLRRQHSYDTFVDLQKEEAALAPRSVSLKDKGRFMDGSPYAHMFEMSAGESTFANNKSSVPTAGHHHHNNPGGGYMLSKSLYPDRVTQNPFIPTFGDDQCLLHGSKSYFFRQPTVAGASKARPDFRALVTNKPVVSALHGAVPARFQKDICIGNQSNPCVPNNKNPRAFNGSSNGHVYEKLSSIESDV

[30] = tested on: Glutamate receptor ionotropic, NMDA 2B (Homo sapiens), Q13224 [F176A]; experiment: Inhibition of NR2B receptor ATD F176A mutant expressed in Xenopus oocytes assessed as NMDA current at 0.5 mM relative to control; format: cell-based; conditions: Oocyte
[31] = tested on: Glutamate receptor ionotropic, NMDA 2B (Homo sapiens), Q13224 [L643A,T647A]; experiment: Binding affinity to NR2B receptor L643A/T647A mutant
[32] = tested on: Glutamate receptor ionotropic, NMDA 2B (Homo sapiens), Q13224 [A652T]; experiment: Binding affinity to NR2B receptor M3c A652T mutant
[33] = tested on: Glutamate receptor ionotropic, NMDA 2B (Homo sapiens), Q13224 [E236A]; experiment: Binding affinity to NR2B receptor ATD E236A mutant
[34] = tested on: Glutamate receptor ionotropic, NMDA 2B (Homo sapiens), Q13224 [S645A]; experiment: Inhibition of NR2B receptor M3c S645A mutant expressed in Xenopus oocytes assessed as NMDA current at 0.5 mM relative to control; format: cell-based; conditions: Oocyte
[35] = Ratio of Kapp for wild type NR2B receptor to Kapp for NR2B receptor S645A/K234A mutant
[36] = tested on: Glutamate receptor ionotropic, NMDA 2B (Homo sapiens), Q13224 [L643C,T647A]; experiment: Binding affinity to NR2B receptor L643C/T647A mutant

Kapp [1]: 6.73 mM
Ratio Ki(app) [2]: 4.8
inhibition [3]: 75%
inhibition [4]: 85%
Activity [5]: inactive
Ratio Ki(app) [6]: 4.9
inhibition [7]: 74%
Kapp [8]: 7.04 mM
inhibition [9]: 83%
Kapp [10]: 4.14 mM
Kapp [11]: 4.21 mM
inhibition [12]: 71%
Ratio Ki(app) [13]: 4.9
inhibition [14]: 89%
Activity [15]: inactive
Kapp [16]: 4.43 mM
Ratio Ki(app) [17]: 40
Ratio Ki(app) [18]: 6.5
Kapp [19]: 2.56 mM
Ratio Ki(app) [20]: 7.2
inhibition [21]: 68%
inhibition [22]: 84%
Ratio Ki(app) [23]: 7.3
inhibition [24]: 74%
inhibition [25]: 72%
inhibition [26]: 73%
inhibition [27]: 69%
inhibition [28]: 72%
Kapp [29]: 4.23 mM
inhibition [30]: 84%
Kapp [31]: 34.5 mM
Kapp [32]: 2.92 mM
Kapp [33]: 2.18 mM
inhibition [34]: 85%
Ratio Ki(app) [35]: 8.2
Kapp [36]: 18.6 mM
SMILES: NC(=O)OCC(COC(N)=O)c1ccccc1
